Patent US20200163984A1, “USE OF ISOVALERYL SPIRAMYCIN I, II AND/OR III IN MANUFACTURING MEDICAMENT FOR TREATING AND/OR PREVENTING TUMOR, AND MEDICAMENT” (SHENYANG FUYANG PHARMACEUTICAL TECHNOLOGY CO., LTD., priority 2017, published 2020)

What was measured:
[1] = tested on: transplanted tumor of human large cell lung cancer H460 cells; test: H460 transplanted tumor in nude mice
Experimental: (§1) Then cell concentration was adjusted to 1×10^7/ml with matrigel, then each nude mouse was inoculated subcutaneously with 0.2 ml of cells at its right armpit and recorded as the first day of inoculation. When the tumor grows to be greater than or equal to 100 mm^3, the mice were randomly divided into 11 groups with 6 mice in each group: isovaleryl spiramycin I groups with doses of 25, 50 and 100 mg/kg, isovaleryl spiramycin II groups with doses of 25, 50 and 100 mg/kg, and isovaleryl spiramycin III groups with doses of 25, 50 and 100 mg/kg. Each group was continuously administered intragastrically for 30 days with a dose of 20 ml/kg. The mice were sacrificed the next day after drug withdrawal and the indicators were tested. The long diameter and short diameter of the tumor, and the body weight of each mouse were recorded every 3 days from drug administration to nude mouse sacrifice.
(§2) The body weight of the nude mice and the long diameter (a) and short diameter (b) of the transplanted tumor were measured every 3 days, and the tumor volume (v), relative tumor volume (RTV) and relative tumor proliferation rate (T/C) are calculated respectively according to the following formulas, wherein V=a×b^2/2; RTV=V/V0 (V0 is the tumor volume before administration, V is the tumor volume before sacrifice), and T/C (%)=treatment group RTV/model control group RTV×100%.
(§3) Each mouse was weighed and sacrificed. After the tumor was completely stripped off from the body of the mouse, the non-tumor tissues such as blood stains and fat were removed to weigh the tumor and calculate the tumor growth inhibition rate. The average tumor weight of each group of mice is used as an indicator of efficacy. Tumor growth inhibition rate (%)=(1−the average tumor weight of the treatment group/the average tumor weight of the model group)×100%.

[2] = tested on: transplanted tumor of human non-small cell lung cancer cell A549; test: A549 transplanted tumor in nude mice; conditions: for Tumor Volume (mm3) (d 1): d1
Experimental: as §1, with “A549 cells in a logarithmic growth phase were taken and subjected to a trypan blue exclusion experiment showing that the cell viability was more than 95%, then the cells were subjected to trypsinization, centrifugation, and supernatant removal. Then” for “Then”, “group: a model group, a cyclophosphamide group,” for “group:”
as §2, §3

[3] = tested on: transplanted tumor of human bladder cancer cell T-24; test: T-24 transplanted tumor in nude mice; conditions: for Tumor Volume (mm3) (d30): d 30
Experimental: as §1, §2, §3

[4] = H460, 25 mg/kg (low dose) i.g. 30 days
[5] = H460, 50 mg/kg (medium dose) i.g. 30 days
[6] = H460, 100 mg/kg (high dose) i.g. 30 days
[7] = A549, high dose (100 mg/kg in method) i.g. 30 days
[8] = A549, low dose (25 mg/kg in method) i.g. 30 days
[9] = A549, medium dose (50 mg/kg in method) i.g. 30 days
[10] = T-24, high dose (100 mg/kg in method) i.g. 30 days
[11] = T-24, low dose (25 mg/kg in method) i.g. 30 days
[12] = T-24, medium dose (50 mg/kg in method) i.g. 30 days

## CO[C@@H]1[C@@H](O[C@@H]2O[C@H](C)[C@@H](O[C@H]3C[C@@](C)(O)[C@@H](OC(=O)CC(C)C)[C@H](C)O3)[C@H](N(C)C)[C@H]2O)[C@@H](CC=O)C[C@@H](C)[C@@H](O[C@H]2CC[C@H](N(C)C)[C@@H](C)O2)/C=C/C=C/C[C@@H](C)OC(=O)C[C@H]1O [Isovaleryl spiramycin I, isovaleryl spiramycin I]
[1]; [4]
  Inhibition Rate (tumor growth inhibition rate): 20.70%
  Relative Tumor Proliferation Rate (T/C): 56.56%
  Relative Tumor Volume (RTV): 5.94 ± 2.02
  Tumor Volume (d 1): 148.20 ± 15.93 mm3
  Tumor Volume (d 30): 889.44 ± 343.94 mm3
  Tumor Weight: 1.37 ± 0.13 g
[1]; [5]
  Inhibition Rate (tumor growth inhibition rate): 46.33%
  Relative Tumor Proliferation Rate (T/C): 49.00%
  Relative Tumor Volume (RTV): 5.15 ± 2.25
  Tumor Volume (d 1): 148.51 ± 17.68 mm3
  Tumor Volume (d 30): 753.94 ± 306.82 mm3
  Tumor Weight: 0.93 ± 0.18 g
[1]; [6]
  Inhibition Rate (tumor growth inhibition rate): 70.11%
  Relative Tumor Proliferation Rate (T/C): 31.96%
  Relative Tumor Volume (RTV): 3.36 ± 0.85
  Tumor Volume (d 1): 145.08 ± 19.59 mm3
  Tumor Volume (d 30): 477.54 ± 89.21 mm3
  Tumor Weight: 0.52 ± 0.07 g
[1]; H460, low, medium and high doses, P<0.05
  tumor volume and relative tumor volume compared with the model group: significantly lower
[1]; mouse, in vivo
  mouse weight compared with the model group: no significant changes
[2]; [7]
  Relative Tumor Proliferation Rate (T/C): 28.35%
  tumor growth inhibition rate: 69.52%
[2]; [8]
  Relative Tumor Proliferation Rate (T/C): 67.18%
  tumor growth inhibition rate: 24.00%
[2]; A549, low, medium and high doses, P<0.05
  tumor volume and relative tumor volume compared with the model group: significantly lower
[2]; [9]
  Relative Tumor Proliferation Rate (T/C): 41.93%
  tumor growth inhibition rate: 58.10%
[2]; A549 nude mice, 25 mg/kg
  Inhibition Rate (%): 24.00%
  Relative Tumor Proliferation Rate (T/C): 67.18%
  Relative Tumor Volume (RTV): 10.91 ± 2.63
  Tumor Weight: 1.82 ± 0.19 g
  Tumor Volume (mm3) (d 1): 111.89 ± 12.17 mm3
  Tumor Volume (mm3) (d30): 1227.24 ± 329.84 mm3
[2]; A549 nude mice, 50 mg/kg
  Inhibition Rate (%): 58.10%
  Relative Tumor Proliferation Rate (T/C): 39.42%
  Relative Tumor Volume (RTV): 6.40 ± 1.75
  Tumor Weight: 1.00 ± 0.44 g
  Tumor Volume (mm3) (d 1): 119.73 ± 5.73 mm3
  Tumor Volume (mm3) (d30): 750.44 ± 220.77 mm3
[2]; A549 nude mice, 100 mg/kg
  Inhibition Rate (%): 69.52%
  Relative Tumor Proliferation Rate (T/C): 28.35%
  Relative Tumor Volume (RTV): 4.60 ± 3.69
  Tumor Weight: 0.73 ± 0.45 g
  Tumor Volume (mm3) (d 1): 110.27 ± 11.43 mm3
  Tumor Volume (mm3) (d30): 475.83 ± 355.37 mm3
[2]; mouse, in vivo
  mouse weight compared with the model group: no significant changes
[2]; mouse, in vivo, 25 mg/kg
  Body Weight (g) (d1): 21.54 ± 1.27 g
  Body Weight (g) (d30): 24.20 ± 1.33 g
[2]; mouse, in vivo, 50 mg/kg
  Body Weight (g) (d1): 21.48 ± 1.46 g
  Body Weight (g) (d30): 25.56 ± 1.67 g
[2]; mouse, in vivo, 100 mg/kg
  Body Weight (g) (d1): 21.36 ± 1.82 g
  Body Weight (g) (d30): 24.47 ± 1.98 g
[3]; [10]
  Relative Tumor Proliferation Rate (T/C): 33.95%
  tumor growth inhibition rate: 65.84%
[3]; [11]
  Relative Tumor Proliferation Rate (T/C): 77.78%
  tumor growth inhibition rate: 20.55%
[3]; T-24, low, medium and high doses, P<0.05
  tumor volume and relative tumor volume compared with the model group: significantly lower
[3]; [12]
  Relative Tumor Proliferation Rate (T/C): 58.92%
  tumor growth inhibition rate: 49.20%
[3]; dose 25 mg/kg
  Inhibition Rate (%): 20.55%
  Relative Tumor Proliferation Rate (T/C): 77.78%
  Relative Tumor Volume (RTV): 10.28 ± 1.12
  Tumor Weight: 1.49 ± 0.23 g
  Tumor Volume (mm3) (d 1): 139.84 ± 15.80 mm3
  Tumor Volume (mm3) (d30): 1428.71 ± 156.12 mm3
[3]; dose 50 mg/kg
  Inhibition Rate (%): 49.20%
  Relative Tumor Proliferation Rate (T/C): 58.92%
  Relative Tumor Volume (RTV): 7.78 ± 1.27
  Tumor Weight: 0.95 ± 0.38 g
  Tumor Volume (mm3) (d 1): 131.81 ± 7.15 mm3
  Tumor Volume (mm3) (d30): 1025.16 ± 174.78 mm3
[3]; dose 100 mg/kg
  Inhibition Rate (%): 65.84%
  Relative Tumor Proliferation Rate (T/C): 33.95%
  Relative Tumor Volume (RTV): 4.48 ± 0.75
  Tumor Weight: 0.64 ± 0.18 g
  Tumor Volume (mm3) (d 1): 134.21 ± 14.43 mm3
  Tumor Volume (mm3) (d30): 606.16 ± 136.06 mm3
[3]; mouse, in vivo
  mouse weight compared with the model group: no significant changes
[3]; mouse, in vivo, 25 mg/kg
  Body Weight (g) (d1): 19.51 ± 0.58 g
  Body Weight (g) (d30): 23.89 ± 1.18 g
[3]; mouse, in vivo, 50 mg/kg
  Body Weight (g) (d1): 19.60 ± 0.70 g
  Body Weight (g) (d30): 25.41 ± 0.92 g
[3]; mouse, in vivo, 100 mg/kg
  Body Weight (g) (d1): 19.49 ± 0.54 g
  Body Weight (g) (d30): 24.6 ± 2.08 g
